Laboratory results published in article PMC12051620, “Molecular basis underlying the specificity of an antagonist AA92593 for mammalian melanopsins” (The Journal of Biological Chemistry, 2025).

What was measured:
[1] = test system: Xenopus Opn4x C94^2.61F/T188^ECL2S/A269^6.52S mutant; assay: GsX GloSensor assay with Gsα/q11; format: cell-based; settings: 16.7 μM AA92593, COS-1 cells
From the text: (§1) The GsX GloSensor assay using Gsα/q11 of Xenopus Opn4x and chicken Opn4-1 detected the light-dependent Gq activation in both non-mammalian-type melanopsins (Fig. 6, A and D). […] The ineffectiveness of AA92593 is consistent with the fact that Phe-94^2.61, Ser-188^ECL2, and Ser-269^6.52 are not conserved among non-mammalian-type melanopsins (Figs. 2A, S2 and S3). If these three residues are important for the antagonistic effect against melanopsins, the introduction of Phe-94^2.61/Ser-188^ECL2/Ser-269^6.52 into the non-mammalian-type melanopsins would make them susceptible to AA92593. As expected, the substitutions of C94^2.61F/T188S^ECL2/A269^6.52S in Xenopus Opn4x and chicken Opn4-1 increased their sensitivity to AA92593 by ∼49% and ∼22%, respectively (Fig. 6, B and E, G–I). […]
(§2) For GloSensor assay, opsins, GloSensor assay sensor (coded by pGlo-22F), and NanoBiT-tagged G proteins were transiently expressed in COS-1 cells (kindly provided from Dr David Farrens, Oregon Health and Science University) using PEI as described previously ([24], [52]). […] For GFP-fluorescence microscopy, a 35-mm cell culture dish (IWAKI) was transfected with 2 μg melanopsin-GFP plasmid and 8 μg PEI in 400 μl Opti-mem and 1.2 ml D-MEM. […]

[2] = test system: chicken Opn4-1 C94^2.61F/T188^ECL2S/A269^6.52S mutant; assay: GsX GloSensor assay with Gsα/q11; format: cell-based; settings: 16.7 μM AA92593, COS-1 cells
From the text: as §1, §2

COc1ccc(S(=O)(=O)N2CCCCC2)cc1C [AA92593]
increase in sensitivity to AA92593 vs WT [1]: ~49%
increase in sensitivity to AA92593 vs WT [2]: ~22%
